Data taken from patent US8940936B2, “Aryloxy phenoxy acrylic compound having HIF-1 inhibition activity, method for preparing same, and pharmaceutical composition containing same as an active ingredient” (Korea Research Institute of Bioscience and Biotechnology, priority 2010, dated 2015).

Test system: HIF-1
Experiment: Inhibition of HIF-1 mediated HRE transcription activity (pGL3-HRE-luciferase reporter)
Type: cell-based, human
Settings: HCT116, hypoxic condition 12 hours
Method: To investigate the inhibition of HIF-1 transcription activity by the compound of the present invention, pGL3-basic vector (Promega) using luciferase as a reporter was cloned in multi-cloning site so as for HRE (Hypoxia Responsive Element, 5′-ACGTG-3′) existing in human VEGF gene to be repeated 6 times, resulting in the construction of pGL3-HRE-luciferase vector.
The human rectal cancer cell line HCT116 was seeded in a 48-well cell culture vessel. On the next day, the cells were transfected with 25 ng of pGL3-HRE-luciferase vector and 2.5 ng of Renilla control vector by using Polyfect reagent. After culturing the cells for 24 hours, the medium was replaced, followed by further culture for 4 hours. Then, the cells were treated with the compound prepared in each example at the concentration of 10 μM respectively, followed by culture in hypoxic condition (oxygen 1%, nitrogen 94%, carbon dioxide 5%) for 12 hours. Lysate was obtained by using RIPA buffer, by which hypoxia-induced luciferase activity was measured by using dual-luciferase assay system (Promega). Hypoxia-induced luciferase activity after the treatment of the compound prepared in example 1 or the compound prepared in comparative example 1 was measured by the same manner as described above except that the compound was treated at the concentrations of 0, 1, 3, 5, 10, and 20 μM. HIF-1 inhibition activity of each compound prepared in example 1 and comparative example 1 respectively was compared and the results are shown in Table 2 and FIG. 2.

COC(=O)c1ccc(O)c(NC(=O)COc2ccc(C34CC5CC(CC(C5)C3)C4)cc2)c1 [Comparative Example 1, 3-[2-(4-adamantan-1-yl-phenoxy)-acetylamino]-4-hydroxy-benzoic acid methyl ester, reference compound]
HRE transcription activity (%) (1 μM): 119.4%
HRE transcription activity (%) (3 μM): 121.5%
HRE transcription activity (%) (5 μM): 98.8%
HRE transcription activity (%) (10 μM): 75.6%
HRE transcription activity (%) (20 μM): 43.1%
